Experimental data reported in PMC9154752, “MHC class II molecules on pancreatic cancer cells indicate a potential for neo-antigen-based immunotherapy” (Oncoimmunology, 2022).
Several values for one entry are separate records, joined by “and”; a condition that tells them apart may be missing. Identical values can stand only once. Like-named read-outs stand apart in the source and are kept apart here. Residues, ends and D or L forms follow the SMILES beside them. No end group written: not given here.

Experiments:
HLA-DP4 = biological target: T1, HLA-DP4 (Homo sapiens, UniProt P04440+P20036); assay: Cell-based competitive MHC-II binding assay with T2-DP4 cells
T1 construct: expressed in transfected cells; host or cells: T2 lymphoblastoid cell line transfected with HLA-DP4 (T2-DP4), gift of Prof; Naoto Hirano, University of Toronto
T1 sequence (P04440 30-258): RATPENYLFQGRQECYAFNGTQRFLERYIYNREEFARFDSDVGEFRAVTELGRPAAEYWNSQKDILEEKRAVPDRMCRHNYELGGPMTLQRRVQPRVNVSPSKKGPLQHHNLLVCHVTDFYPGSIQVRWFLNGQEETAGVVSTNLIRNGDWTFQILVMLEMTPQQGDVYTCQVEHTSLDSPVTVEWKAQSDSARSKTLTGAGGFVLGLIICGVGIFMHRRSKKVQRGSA
T1 sequence (P20036 29-260): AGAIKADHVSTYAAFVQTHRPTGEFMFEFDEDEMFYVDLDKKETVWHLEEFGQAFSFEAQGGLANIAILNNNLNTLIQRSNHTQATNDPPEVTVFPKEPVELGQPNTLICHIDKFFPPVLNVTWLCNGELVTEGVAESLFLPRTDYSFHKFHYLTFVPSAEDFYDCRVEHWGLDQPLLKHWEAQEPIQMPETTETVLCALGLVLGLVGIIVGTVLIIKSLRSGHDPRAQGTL

CD4+ T-cells = assay: Immunogenicity T-cell assay (intracellular IFN-γ in peptide-stimulated CD4+ T-cells); format: cell-based, human; settings: for Immunogenicity, % of responses: percentage of the 9 donors responding; for Immunogenicity, No of responses: responding donors of 9 HLA-DP4-positive donors, 3 weekly stimulations with mDC pulsed at 10 μg/mL, challenge with peptide-pulsed T2-DP4, intracellular IFN-γ by FACS
Method: Immunogenicity of candidate HLA-DP4 neo-epitopes was performed using HLA-matched healthy donors’ autologous PBMCs. Briefly, mature DCs were pulsed with individual neo-epitopes at 10 μg/mL and co-cultured with autologous magnetic-sorted CD4+ T-cells (CD4 Microbeads Human, MACS Miltenyi; #130-045-101) in RPMI with 5% AB human serum (#H4522-100ML; Sigma-Aldrich), 10 units/mL penicillin–streptomycin, 2 mmol/L L-glutamine, 1% nonessential amino acid, IL-6 (#570802; BioLegend) (1000 U/mL) and IL-12 (#573002; BioLegend) (5 ng/mL). IL-2 (#589106; BioLegend) (30 U/mL) and IL-7 (#581902; BioLegend) (5 ng/mL) was added every 2 days. CD4+ T-cells underwent another two rounds of stimulation with peptide-pulsed mature DCs on day 7 and 14. Seven days after the third stimulation, CD4+ T-cells were challenged by overnight incubation with peptide-loaded T2-DP4 cells. As a control, CD4+ T-cells were incubated with T2-DP4 without peptide. Reactivity of the T cells was determined by intracellular IFN-γ (#502515; BioLegend) staining measured by flow cytometry. When Capan-1-derived neo-epitopes were tested, the peptide-stimulated CD4+ T-cells were challenged by overnight incubation with Capan-1 (MHC-II-negative), IFN-γ-treated Capan-1 cells (MHC-II-positive). Supernatants were collected and assessed for LDH (cytotoxicity), IFN-γ, granzyme B and granulysin. Where indicated, purified endotoxin-free anti-MHC class II (clone TÜ39; #555556; BD Bioscience, Chicago, IL, USA) antibodies were added to the co-cultures at 10 μg/mL.
(§1) For cell surface labeling, cell suspensions were incubated with antibodies for 30 min at room temperature. For intracellular staining, cells were fixed and permeabilized using a Leucoperm kit (Bio-Rad; #BUF09C) in accordance with the manufacturer’s guidelines. Prior to intracellular staining with anti-IFN-γ, cells were incubated overnight in the presence of 5 microgram per mL brefeldin A (Sigma-Aldrich; #B6542-5 MG). Cell viability was analyzed by Ethidium homodimer 1 and calcein-AM double-staining using LIVE/DEAD® Viability/Cytotoxicity Kit, for mammalian cells according to the manufacturer’s instructions (#L3224; Invitrogen). Flow cytometry was done using a FACSCalibur (Becton Dickinson, Heidelberg, Germany) or BD LSRII (Becton Dickinson) flow cytometer. The data were processed with the CellQuest software (Becton Dickinson, Heidelberg, Germany) and analyzed with the WinMDi 2.9 (Purdue University, USA).

PDAC cell lines = assay: MHC-II surface expression on PDAC cell lines by flow cytometry; format: cell-based, human; settings: 48 h; for MHC-II expression, agent alone / MHC-II expression, treatment together with IFN-γ: 8988 T, FA6 and MiaPaca-2 cells; for MHC-II expression, treatment together with IFN-γ: IFN-γ 50 ng/mL
Method: All PDAC cell lines were stimulated with 50 ng/mL of the human recombinant IFN-γ (#570206; BioLegend) in T75 culture flasks for 48 h. As negative control, we co-incubated the cell lines in the medium alone. Where inhibitors were used, trametinib (#S2673; Selleckchem) or trichostatin A (TSA) (#T8552-1 MG; Sigma-Aldrich) at the indicated concentrations were added into the cultures with or without IFN-γ. After incubation, the cells were removed from the flasks by treatment with trypsin, cell suspensions were prepared and cells were stained with purified mouse IgG antibodies to CLIP (clone CerCLIP.1; #ab22606; Abcam, Cambridge, UK), and HLA-DR, DP, DQ (clone Tü39; #555556; BD) or isotype control (mouse IgG2a; #554645; BD) followed by Alexa Fluor 488-conjugated anti-mouse IgG, and APC-conjugated anti-PD-L1 (clone 29E.2A3; #329708; BioLegend) and processed for flow cytometry analysis.
as §1

MiaPaca-2 cells = assay: CD4+ T-cell recognition of MiaPaca-2 cells (granzyme B ELISA); format: cell-based, human; settings: MHC-II induced by IFN-γ in conjunction with trametinib; overnight, T-cell:tumor 5:1, granzyme B ELISA, 4 donors
Method: Figure 8. Trametinib and TSA enhance responsiveness to IFN-γ in PDAC cells. (A) 8988 T, FA6 and MiaPaca-2 cells were treated with IFN-γ or left untreated, in the presence or absence of the MEK inhibitor, trametinib and/or histone deacetylase inhibitor TSA at the indicated concentrations for 48 hours. The cells were then collected, stained with anti-MHC-II antibodies and analyzed by flow cytometry. All flow cytometry data were gated on viable, singlets and MFI values for MHC-II were normalized to the untreated cells (none). Data are from three independent experiments. (B) Allogenic activated CD4+ T-cells from 4 healthy donors were incubated overnight with MiaPaca-2 cells (T-cell:tumor ratio 5:1). Where indicated, the cultures were treated with blocking antibodies or isotype control (IgG). […] All data were analyzed by one-way ANOVA; * P < 0.05; ** p < 0.01; *** p < 0.001; **** p < 0.0001. […]
The cytokine IFN-γ and the cytolytic molecules granulysin and granzyme B were detected in supernatants of T-cell/tumor cell co-cultures using commercial ELISA kits (Human IFN gamma ELISA Ready-SET-Go!®, #88-7316-76, Affymetrix eBioscience; Human Granulysin DuoSet ELISA, #DY3138; and Human Granzyme B DuoSet ELISA, #DY2906-05, R&D Systems) in 96-well microtiter plates (Nunc Maxisorp, Rochester, NY, USA) following the manufacturer’s instructions.

[1] = T2-DP4 cells, overnight 37°C, competitor from 80 µM in 8 serial dilution steps, 500 nM FITC-labeled Oxy271-287, flow cytometry, n = 3 per peptide, read-out: IC50 (µM) Binding Assay

KFESEKYQDILMWNY [Peptide 71]
IC50 (HLA-DP4; [1]): 28.9 µM

TDLHMLGAPVWAMLF [Peptide 96]
IC50 (HLA-DP4; [1]): 10.9 µM

LKFWEDEGFVREEED [Peptide 100]
Immunogenicity, % of responses (CD4+ T-cells): 22% | Immunogenicity, No of responses (CD4+ T-cells): 2 of 9

PRGKGLVYAQYLPKE [Peptide 104]
IC50 (HLA-DP4; [1]): 38.2 µM

GKGLVYAQYLPKEQY [Peptide 105]
IC50 (HLA-DP4; [1]): 47.9 µM

GLQTLYSAALYHLTT [Peptide 93]
IC50 (HLA-DP4; [1]): 21.6 µM

TFRSPQKFGALIFLV [Peptide 91]
IC50 (HLA-DP4; [1]): 24.8 µM

QGKYKAFSTCAFHLS [Peptide 70]
IC50 (HLA-DP4; [1]): 31.5 µM

HLVAFGISCFLGSGL [Peptide 77]
Immunogenicity (in words) (CD4+ T-cells; 9 HLA-DP4-positive donors): most immunogenic | Immunogenicity, % of responses (CD4+ T-cells): 88% | Immunogenicity, No of responses (CD4+ T-cells): 8 of 9

FQHLHRLTYLKLWYN [Peptide 80]
IC50 (HLA-DP4; [1]): 27.8 µM

QPEGPYRVAGYSYVA [Peptide 87]
IC50 (HLA-DP4; [1]): 31.9 µM

CC(=O)Nc1cccc(-n2c(=O)n(C3CC3)c(=O)c3c(Nc4ccc(I)cc4F)n(C)c(=O)c(C)c32)c1 [trametinib]
MHC-II expression, agent alone (PDAC cell lines): induced a slight increase in the expression of MHC-II | MHC-II expression, treatment together with IFN-γ (PDAC cell lines): increased MHC-II expression compared with IFN-γ alone | Susceptibility of MiaPaca-2 cells to CD4+ T-cell recognition (MiaPaca-2 cells): rendered these cells susceptible to CD4+ T-cells recognition

IVKGRFGEVWRGRWR [Peptide 103]
Immunogenicity, % of responses (CD4+ T-cells): 22% | Immunogenicity, No of responses (CD4+ T-cells): 2 of 9

YKAFSTCAFHLSVVS [Peptide 69]
Binding to HLA-DP4 in cell-based binding assay (in words) (HLA-DP4; Peptides with IC50 < 200 µM were considered binders): not to bind

CSCC[C@H](NC(=O)[C@H](CCC(N)=O)NC(=O)[C@@H]1CCCN1C(=O)[C@@H](NC(=O)[C@H](CC(=O)O)NC(=O)[C@@H](N)CS)C(C)C)C(=O)N[C@@H](CC(C)C)C(=O)N[C@@H](CCCCN)C(=O)N[C@@H](CC(C)C)C(=O)N[C@@H](C)C(=O)N[C@@H](CS)C(=O)N[C@@H](Cc1ccc(O)cc1)C(=O)N[C@@H](Cc1ccc(O)cc1)C(=O)N[C@@H](CCC(=O)O)C(=O)N[C@@H](Cc1ccccc1)C(=O)O [Peptide 94] (H-CDVPQMLKLACYYEF-OH; N-terminus and C-terminus assumed)
Immunogenicity, % of responses (CD4+ T-cells): 0% | Immunogenicity, No of responses (CD4+ T-cells): 0 of 9

FNNFTVSFWLRVPKVSASHLE [TT 947-967, reference compound]
IC50 (HLA-DP4): 3.05 µM

QHLHRLTYLKLWYNH [Peptide 82]
IC50 (HLA-DP4; [1]): 18.6 µM

SIDRTVMYYGLLFIQ [Peptide 88]
IC50 (HLA-DP4; [1]): 71 µM

IYSLRNTEFKSALRR [Peptide 83]
IC50 (HLA-DP4; [1]): 27.7 µM

TAFTFQSSKEKLDVG [Peptide 109]
Immunogenicity, % of responses (CD4+ T-cells): 11% | Immunogenicity, No of responses (CD4+ T-cells): one out of nine and 1 of 9

FESEKYQDILMWNYR [Peptide 73]
IC50 (HLA-DP4; [1]): 15.9 µM

TGLQTLYSAALYHLT [Peptide 102]
IC50 (HLA-DP4; [1]): 14.3 µM

SFQHLHRLTYLKLWY [Peptide 78]
IC50 (HLA-DP4; [1]): 25.8 µM

MIYSLRNTEFKSALR [Peptide 84]
IC50 (HLA-DP4; [1]): 24.5 µM

HTCVKFYIEGFEPGK [Peptide 74]
Immunogenicity, % of responses (CD4+ T-cells): 11% | Immunogenicity, No of responses (CD4+ T-cells): one out of nine and 1 of 9

CC(/C=C/C(=O)NO)=C\[C@@H](C)C(=O)c1ccc(N(C)C)cc1 [TSA, trichostatin A]
MHC-II expression, agent alone (PDAC cell lines): did not induce expression of MHC-II | MHC-II expression, treatment together with IFN-γ (PDAC cell lines): enhanced MHC-II expression in FA6 cells, but not in 8988 T and MiaPaca-2 cells

RNTGLQTLYSAALYH [Peptide 97]
IC50 (HLA-DP4; [1]): 22.6 µM

IGQVAAGAFANLRAL [Peptide 99]
IC50 (HLA-DP4; [1]): 27.9 µM

PMIYSLRNTEFKSAL [Peptide 92]
IC50 (HLA-DP4; [1]): 6.36 µM

LLKFWEDEGFVREEE [Peptide 98]
Immunogenicity, % of responses (CD4+ T-cells): 11% | Immunogenicity, No of responses (CD4+ T-cells): one out of nine and 1 of 9

RNTIGQVAAGAFANL [Peptide 86]
IC50 (HLA-DP4; [1]): 37 µM

ALLKFWEDEGFVREE [Peptide 101]
Immunogenicity, % of responses (CD4+ T-cells): 44% | Immunogenicity, No of responses (CD4+ T-cells): 4 of 9

B1: IFN-γ: human recombinant IFN-γ (#570206; BioLegend) (protein, UniProt P01579 24-161, looked up)
Interferon gamma: QDPYVKEAENLKKYFNAGHSDVADNGTLFLGILKNWKEESDRKIMQSQIVSFYFKLFKNFKDDQSIQKSVETIKEDMNVKFFNSNKKKRDDFEKLTNYSVTDLNVQRKAIHELIQVMAELSPAAKTGKRKRSQMLFRG
MHC class II surface expression (PDAC cell lines; 14 PDAC and circulating tumor cell lines, 50 ng/mL): upregulated in these cell lines and de novo expression was observed in six additional cell lines | MHC-II expression, agent alone (PDAC cell lines): induced low expression of MHC-II
